The text below walks through data of publication PMC10793102 (Acta Pharmaceutica Sinica. B, 2023).

Structures are written as SMILES. Read-outs that look alike come from different tables or passages of the source.

Test [1] deals with FADD−/− Jurkat. Briefly: Cell viability assay, protection from necroptosis in FADD−/− Jurkat cells. The format is cell-based. Particulars: Homo sapiens, 16 h.
The subject of test [2] is L929. The test is described as follows: Cell viability assay, protection from necroptosis in L929 cells. It counts as cell-based, mouse. To be noted: for EC50: Mus musculus, L929, 16 h.
[3] abbreviates: read-out: EC50 FADD−/− Jurkat T + S.
Setting [4] is: read-out: EC50 FADD−/− Jurkat TNFα.

For `CN(C)CCNC(=O)c1ccc2c(c1)ncn2-c1ccc(CNC(=O)c2cnn(C)c2Cc2ccccc2)cc1` [compound 30], the EC50 in test [1] (setting [3]) was 368 nM; in test [1] (setting [4]), 53 nM; in test [2] (read-out: EC50 L929 T + S), greater than 10000 nM; in test [2] (read-out: EC50 L929 TNFα), greater than 10000 nM.
`CNC(=O)c1ccc2c(ccn2-c2ccc(CNC(=O)c3cc(Cc4ccccc4)n(C)n3)cc2)c1` [compound 28]: the EC50 in test [1] (setting [3]), in test [1] (setting [4]), in test [2] (read-out: EC50 L929 T + S) and in test [2] (read-out: EC50 L929 TNFα) was greater than 10000 nM throughout.
On to `CNC(=O)c1ccc2c(c1)ncn2-c1ccc(CNC(=O)c2cn(Cc3ccccc3)nn2)cc1` [compound 24], for which the EC50 in test [1] (setting [3]) was determined as 1590 nM; in test [1] (setting [4]), 233 nM.
Take `Cn1nc(C(=O)NCc2ccc(-n3cnc4c(N)ncnc43)cc2)cc1Cc1ccccc1` [compound 43]: the EC50 in test [1] (setting [3]) is 0.3 nM; in test [1] (setting [4]) it was 0.06 nM; in test [2] (read-out: EC50 L929 T + S) it was 384 nM; in test [2] (read-out: EC50 L929 TNFα), 25 nM.
Regarding `CNC(=O)c1ccc2c(c1)ncn2-c1ccc(CNC(=O)c2nnn(Cc3ccccc3)n2)cc1` [compound 25], the values for the EC50 in test [1] (setting [3]) and in test [1] (setting [4]) were 150 nM and 24 nM, respectively.
As for `Cn1ncc(C(=O)NCc2ccc(-c3ncnc4[nH]ccc34)cc2)c1Cc1ccccc1` [compound 38], the EC50 is 747 nM in test [1] (setting [3]), 152 nM in test [1] (setting [4]), greater than 10000 nM in test [2] (read-out: EC50 L929 T + S) and greater than 10000 nM in test [2] (read-out: EC50 L929 TNFα).
With `Cn1nc2c(c1Cc1ccccc1)C(=O)N(Cc1ccc(-n3cnc4c(N)ncnc43)cc1)C2` [compound 60], the EC50 in test [1] (setting [3]) amounted to 2.9 nM; in test [1] (setting [4]), 0.05 nM; in test [2] (read-out: EC50 L929 T + S), 116 nM; in test [2] (read-out: EC50 L929 TNFα), 4.8 nM.
Turning to `Nc1ncnc2c1ncn2-c1ccc(CN2CCc3cn(Cc4ccccc4)nc3C2=O)cc1` [compound 61], the figures for the EC50 in test [1] (setting [3]) and in test [1] (setting [4]) were 0.4 nM and 0.3 nM, respectively.
Turning to `COc1ccc2ncn(-c3ccc(CNC(=O)c4cnn(C)c4Cc4ccccc4)cc3)c2c1` [compound 35], the EC50 in test [1] (setting [3]) turned out to be 0.6 nM; in test [1] (setting [4]), 0.01 nM; in test [2] (read-out: EC50 L929 T + S), 0.4 nM; in test [2] (read-out: EC50 L929 TNFα), 0.03 nM.
Take `CCn1nc(C(=O)NCc2ccc(-n3cnc4cc(C(=O)NC)ccc43)cc2)cc1Cc1ccccc1` [compound 22]: the EC50 in test [1] (setting [3]) came to 43 nM; in test [1] (setting [4]), 5.9 nM.
For `Nc1ncnc2c1ncn2-c1ccc(CNC(=O)c2ccc(Cl)n2Cc2ccccc2)cc1` [compound 52] the same measures were 80.6 nM and 6.6 nM.
For `Cn1nc(C(=O)NCc2ccc(-n3ccc4c(N)nccc43)cc2)cc1Cc1ccccc1` [compound 46] the same measures were greater than 10000 nM and 361 nM.
With `CCN1CCN(Cc2ccc(NC(=O)c3ccc(-n4cnc5cc(C(=O)NC)ccc54)cc3)cc2C(F)(F)F)CC1` [compound 13], the “protective effects against cell death of L929 cells induced by TNFα” value in test [2] (TNFα 40 ng/mL, 15 h, Fig. 2A) is reported as “relatively weaker”.
For the compound `CNC(=O)c1ccc2c(c1)ncn2-c1ccc(CNC(=O)c2n[nH]c(Cc3ccccc3)n2)cc1` [compound 15], in test [1] (setting [4]), the EC50 is greater than 10000 nM.
Consider `CCCn1nc(C(=O)NCc2ccc(-n3cnc4cc(C(=O)NC)ccc43)cc2)cc1Cc1ccccc1` [compound 23], for which the EC50 in test [1] (setting [3]) was determined as 738 nM; in test [1] (setting [4]) it was 109 nM.
The matching figures for `COc1ccc2c(cnn2-c2ccc(CNC(=O)c3cnn(C)c3Cc3ccccc3)cc2)c1` [compound 36]: 128 nM and 18 nM.
As for `COc1cc2ncnc(-c3ccc(CNC(=O)c4cnn(C)c4Cc4ccccc4)cc3)c2cc1OC` [compound 37], the EC50 in test [1] (setting [3]) is 1500 nM; in test [1] (setting [4]), 233 nM.
The matching figures for `Cn1nc(C(=O)NCc2ccc(-n3ncc4c(N)ncnc43)cc2)cc1Cc1ccccc1` [compound 44]: 451 nM and 71 nM.
For `N#Cc1ccc(C(=O)NCc2ccc(-n3cnc4c(N)ncnc43)cc2)n1Cc1ccccc1` [compound 53] the same measures were 1860 nM and 214 nM.
Regarding `CNC(=O)c1ccc2c(c1)ncn2-c1ccc(CNC(=O)c2nnc(Cc3ccccc3)o2)cc1` [compound 17], the EC50 was 1520 nM in test [1] (setting [3]) and 185 nM in test [1] (setting [4]).
